The results in this text go back to US9434724B2, “Quinuclidines for modulating alpha 7 activity” (priority 2014, dated 2016).

The term IC50 denotes the point on the concentration scale where inhibition reaches its midpoint. As a reminder, the Ki is a measure of affinity in units of concentration, obtained from inhibition or displacement. A lower Ki goes with higher affinity. As a reminder, the half-life is the time in which the quantity being followed falls by half. Read a low half-life as fast loss.

Where a name gives a salt, the structure may show the parent alone. Read-outs that look alike come from different tables or passages of the source.

The target of data set [1] is CYP1A2 (Homo sapiens (Human), UniProt P05177). Nature of the data set: Cytochrome P450 inhibition in human liver microsomes, CYP1A2. As to conditions: read-out: 1A2 IC50, Protocol 2.
Data set [2] has as its target CYP2C19 (Homo sapiens (Human), UniProt P33261). Conditions: microsomes.
A short description of data set [3]: Metabolic stability assay in rat liver microsomes (RLM). Format: in vitro ADME. As to conditions: 1 μM. A digest of the protocol: (§1)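 In Protocol 1, compound was 1 μM final with NADPH at 37 °C, sampled at 0–45 min. In Protocol 2, 1.5 μM compound with 0.75 mg/mL microsomes (pre-NADPH mix) in 0.1 M potassium phosphate, 1 mM EDTA, pH 7.4 was pre-incubated 10 min, then NADPH started the reaction. Both: LC-MS/MS % remaining versus time 0, half-life from single-phase exponential fit.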
On the technique in general: Liver microsomes are a subcellular fraction often used to study metabolism.

Data set [4] in a line: Metabolic stability assay in human liver microsomes (HLM). It counts as in vitro ADME. As to conditions: 1 μM. In outline:
as §1

The target of data set [5] is T1, rat brain nicotinic receptor (α7 NAChR) (Rattus norvegicus (Rat), UniProt Q05941). It counts as binding.
The nature of data set [6]: Human plasma stability. Format: in vitro ADME. As to conditions: plasma; for % Remaining @ 2 h: 5 μM. A digest of the protocol: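 Compound remaining was quantified by LC-MS/MS as peak-area ratio to internal standard relative to time 0, with half-lives from single-exponential fits. Protocol 1 incubated 1 μM in heparinized human plasma (pH 7.4, 37° C) to 120 min; protocol 2 used 5 μM, pH 7.4–8.0, 37° C, n=2, to 120 min.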

In data set [7] the target is T1, rat brain nicotinic receptor (α7 NAChR). It counts as binding. Conditions: Protocol No. 2; [3H] α-Bungarotoxin 0.4 nM, rat brain P2 membrane.

Chain of CYP1A2 (P05177 whole entry): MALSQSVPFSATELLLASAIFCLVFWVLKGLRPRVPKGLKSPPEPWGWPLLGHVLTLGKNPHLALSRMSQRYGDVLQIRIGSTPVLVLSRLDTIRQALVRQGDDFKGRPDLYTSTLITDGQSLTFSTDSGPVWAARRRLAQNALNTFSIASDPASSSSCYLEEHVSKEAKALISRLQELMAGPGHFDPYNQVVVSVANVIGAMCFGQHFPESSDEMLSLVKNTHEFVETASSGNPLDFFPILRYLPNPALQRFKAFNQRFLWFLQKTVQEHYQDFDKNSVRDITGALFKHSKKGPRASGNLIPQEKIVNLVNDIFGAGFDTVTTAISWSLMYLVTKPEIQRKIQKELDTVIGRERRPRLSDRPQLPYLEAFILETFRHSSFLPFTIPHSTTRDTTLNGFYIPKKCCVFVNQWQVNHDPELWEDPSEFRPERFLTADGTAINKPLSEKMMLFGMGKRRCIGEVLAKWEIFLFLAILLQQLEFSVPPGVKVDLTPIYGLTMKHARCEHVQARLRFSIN
T1 sequence (Q05941 23-502 limits assumed): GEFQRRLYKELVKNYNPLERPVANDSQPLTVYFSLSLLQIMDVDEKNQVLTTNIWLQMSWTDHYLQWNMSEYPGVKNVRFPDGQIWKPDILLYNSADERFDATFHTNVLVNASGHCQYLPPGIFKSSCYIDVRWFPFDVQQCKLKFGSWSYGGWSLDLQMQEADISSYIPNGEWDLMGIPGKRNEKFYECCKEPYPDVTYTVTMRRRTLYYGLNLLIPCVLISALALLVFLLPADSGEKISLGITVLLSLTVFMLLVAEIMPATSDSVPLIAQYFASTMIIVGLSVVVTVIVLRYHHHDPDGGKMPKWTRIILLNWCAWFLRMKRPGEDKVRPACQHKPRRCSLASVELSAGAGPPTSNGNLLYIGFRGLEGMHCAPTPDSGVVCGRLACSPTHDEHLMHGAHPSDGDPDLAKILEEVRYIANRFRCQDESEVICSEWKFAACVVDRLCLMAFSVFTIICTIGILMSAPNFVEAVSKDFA
Chain of CYP2C19 (P33261 whole entry): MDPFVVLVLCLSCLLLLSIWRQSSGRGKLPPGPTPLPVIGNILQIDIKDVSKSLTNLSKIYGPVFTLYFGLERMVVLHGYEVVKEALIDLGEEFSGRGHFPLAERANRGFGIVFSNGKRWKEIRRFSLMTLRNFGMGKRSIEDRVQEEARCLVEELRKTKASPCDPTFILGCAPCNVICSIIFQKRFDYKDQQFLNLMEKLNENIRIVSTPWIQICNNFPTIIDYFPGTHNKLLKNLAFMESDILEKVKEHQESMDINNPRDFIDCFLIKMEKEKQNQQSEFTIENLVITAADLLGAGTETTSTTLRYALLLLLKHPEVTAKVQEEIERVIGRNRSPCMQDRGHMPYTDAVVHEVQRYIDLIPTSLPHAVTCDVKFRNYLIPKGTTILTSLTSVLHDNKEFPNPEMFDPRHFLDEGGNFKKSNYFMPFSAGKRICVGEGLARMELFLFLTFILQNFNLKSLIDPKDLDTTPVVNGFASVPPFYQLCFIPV

Consider `O=C(OCC12CCN(CC1)CC2)c1c[nH]c2ccc(Cl)cc12` [Compound 2, quinuclidin-4-ylmethyl 5-chloro-1H-indole-3-carboxylate], for which the IC50 in data set [1] was above 10000 nM; in data set [2], above 10000 nM; in data set [5], 328 nM. In data set [3] (rat, microsomes, pH 7.4), this compound registered an RLM of 127.44 mL/min/kg. Further, the HLM in data set [4] (human, microsomes, pH 7.4) was below 13.608 mL/min/kg. In data set [5], this compound returned a Ki of 287 nM.

As to `O=C(OCC12CCN(CC1)CC2)c1c[nH]c2c(Cl)cccc12` [Compound 25, quinuclidin-4-ylmethyl 7-chloro-1H-indole-3-carboxylate], the values for the IC50 in data set [1], in data set [2] and in data set [5] were above 10000 nM, above 10000 nM and 1650 nM, respectively. Also, the RLM in data set [3] (rat, microsomes, pH 7.4) came out at 219.053 mL/min/kg. In addition, the HLM in data set [4] (human, microsomes, pH 7.4) is given as below 13.608 mL/min/kg. Moreover, in data set [5], the Ki is 1450 nM.

As for `O=C(OCC12CCN(CC1)CC2)c1c[nH]c2cccc(F)c12` [Compound 13, quinuclidin-4-ylmethyl 4-fluoro-1H-indole-3-carboxylate], the IC50 in data set [1] was above 10000 nM; in data set [2], above 10000 nM; in data set [5], 14.1 nM. In data set [6] (human, pH 7.4), this compound came in with a half-life at 1 μM of 15 min. In data set [3] (rat, microsomes, pH 7.4), the RLM turned out to be 94.3866 mL/min/kg. Besides, the HLM in data set [4] (human, microsomes, pH 7.4) is below 13.608 mL/min/kg. Also, in data set [5], the Ki is 12.2 nM.

For `O=C(OCC12CCN(CC1)CC2)c1c[nH]c2ccc(Cl)cc12` [Compound 27, quinuclidin-4-ylmethyl 5-chloro-1H-indole-3-carboxylate], the IC50 in data set [1] is above 10000 nM; in data set [2] it was above 10000 nM; in data set [5] it was 282 nM. In addition, in data set [3] (rat, microsomes, pH 7.4), the RLM is 106.429 mL/min/kg. In data set [4] (human, microsomes, pH 7.4), this compound had an HLM below 13.608 mL/min/kg. The same compound yielded an inhibition constant (Ki) in data set [5] of 247 nM.

As to `Cc1cc(OC(=O)C(C)(C)C)cc2[nH]cc(C(=O)OCC34CCN(CC3)CC4)c12` [Compound 89, quinuclidin-4-ylmethyl 4-methyl-6-(pivaloyloxy)-1H-indole-3-carboxylate], in data set [7], the IC50 is 1070 nM and the Ki was determined as 2130 nM. The “% Remaining @ 2 h” value in data set [6] (human, 2 h) is 77.23%. The compound also returned an RLM in data set [3] (rat, microsomes) of 1154.15 mL/min/kg. In data set [4] (human, microsomes), the HLM is 347.66 mL/min/kg.

In data set [7], `Cl.O=C(OCC12CCN(CC1)CC2)c1c[nH]c2cc(C(F)(F)F)ccc12` [Compound 90, quinuclidin-4-ylmethyl 6-(trifluoromethyl)-1H-indole-3-carboxylate] came in with an IC50 above 3000 nM and a Ki above 3000 nM. Further, the “% Remaining @ 2 h” value in data set [6] (Protocol No. 2, 37° C.) was found to be 63.18%. Besides, the RLM in data set [3] (Protocol No. 1, rat liver microsomes) is recorded as 72.22 mL/min/kg. This compound also yielded an HLM in data set [4] (Protocol No. 1, human liver microsomes) of 5.21 mL/min/kg.

In data set [7], `Cc1c(OCCO)ccc2[nH]cc(C(=O)OCC34CCN(CC3)CC4)c12` [Compound 95, quinuclidin-4-ylmethyl 5-(2-hydroxyethoxy)-4-methyl-1H-indole-3-carboxylate, 2,2,2-trifluoroacetate salt] came in with an IC50 of 213 nM and a Ki of 414 nM. Besides, the “% Remaining @ 2 h” value in data set [6] (human, 2 h) came to 73.17%. The RLM in data set [3] (rat, microsomes) is 17.75 mL/min/kg. The HLM in data set [4] (human, microsomes) was 2.86 mL/min/kg.

With `COc1cc(C)cc2[nH]cc(C(=O)OCC34CCN(CC3)CC4)c12` [Compound 85, quinuclidin-4-ylmethyl 4-methoxy-6-methyl-1H-indole-3-carboxylate], in data set [7], the IC50 stood at 180 nM and the Ki turned out to be 357 nM. The “% Remaining @ 2 h” value in data set [6] (human, 2 h) is recorded as 27.28%. Moreover, the RLM in data set [3] (rat, microsomes) was determined as 59.67 mL/min/kg. In data set [4] (human, microsomes), this compound came in with an HLM of 8.18 mL/min/kg.

In data set [7], `CC(=O)Nc1cc(C)c2c(C(=O)OCC34CCN(CC3)CC4)c[nH]c2c1` [Compound 93, quinuclidin-4-ylmethyl 6-acetamido-4-methyl-1H-indole-3-carboxylate] yielded an IC50 of 1310 nM and a Ki of 2870 nM. In addition, in data set [6] (human, 2 h), the “% Remaining @ 2 h” value was 81.38%. Further, in data set [3] (rat, microsomes), the RLM turned out to be 12.66 mL/min/kg. In data set [4] (human, microsomes), this compound yielded an HLM of 12.96 mL/min/kg.
